PMC3313677 (Biochemistry, 2012)
Read-outs that look alike come from different tables or passages of the source.

What was measured:
[1] = biological target: V26F MR (Pseudomonas putida, UniProt P11444, V26F); experiment: CD-based competitive inhibition of MR variant V26F; format: biochemical
[2] = biological target: V29A MR (Pseudomonas putida, UniProt P11444, V29A); experiment: CD-based competitive inhibition of MR variant V29A; format: biochemical
[3] = biological target: A25V MR (Pseudomonas putida, UniProt P11444, A25V); experiment: CD-based competitive inhibition of MR variant A25V; format: biochemical
A25V MR, sequence (P11444 whole entry A25V): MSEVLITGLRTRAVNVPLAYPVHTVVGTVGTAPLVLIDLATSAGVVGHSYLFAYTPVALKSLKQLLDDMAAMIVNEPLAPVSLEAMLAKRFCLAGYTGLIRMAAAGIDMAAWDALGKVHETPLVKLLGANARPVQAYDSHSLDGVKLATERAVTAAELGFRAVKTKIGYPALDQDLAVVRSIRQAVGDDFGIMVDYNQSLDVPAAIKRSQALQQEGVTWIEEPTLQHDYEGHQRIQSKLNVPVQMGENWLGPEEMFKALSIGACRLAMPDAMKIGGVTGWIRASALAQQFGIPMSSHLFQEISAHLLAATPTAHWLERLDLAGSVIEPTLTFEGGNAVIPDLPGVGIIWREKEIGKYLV

[4] = biological target: T24S MR (Pseudomonas putida, UniProt P11444, T24S); experiment: CD-based competitive inhibition of MR variant T24S; format: biochemical
T24S MR, sequence (P11444 whole entry T24S): as the sequence (P11444 whole entry A25V) above, with T24S, V25A counted along it

[5] = biological target: V22F MR (Pseudomonas putida, UniProt P11444, V22F); experiment: CD-based competitive inhibition of MR variant V22F; format: biochemical
V22F MR, sequence (P11444 whole entry V22F): as the sequence (P11444 whole entry A25V) above, with V22F, V25A counted along it

[6] = biological target: V26A MR (Pseudomonas putida, UniProt P11444, V26A); experiment: CD-based competitive inhibition of MR variant V26A; format: biochemical
V26A MR, sequence (P11444 whole entry V26A): as the sequence (P11444 whole entry A25V) above, with V25A, V26A counted along it

[7] = biological target: Y54L MR (Pseudomonas putida, UniProt P11444, Y54L); experiment: CD-based competitive inhibition of MR variant Y54L; format: biochemical
Y54L MR, sequence (P11444 whole entry Y54L): as the sequence (P11444 whole entry A25V) above, with V25A, Y54L counted along it

[8] = biological target: V29D MR; conditions: read-out: Ki (competitive inhibition constant); cited from earlier work
[9] = biological target: V26L MR (Pseudomonas putida, UniProt P11444, V26L); experiment: CD-based competitive inhibition of MR variant V26L; format: biochemical
V26L MR, sequence (P11444 whole entry V26L): as the sequence (P11444 whole entry A25V) above, with V25A, V26L counted along it

[10] = biological target: V26A/V29L MR (Pseudomonas putida, UniProt P11444, V26A/V29L); experiment: CD-based competitive inhibition of MR variant V26A/V29L; format: biochemical
V26A/V29L MR, sequence (P11444 whole entry V26A/V29L): as the sequence (P11444 whole entry A25V) above, with V25A, V26A, V29L counted along it

[11] = biological target: V29F MR (Pseudomonas putida, UniProt P11444, V29F); experiment: CD-based competitive inhibition of MR variant V29F; format: biochemical
V29F MR, sequence (P11444 whole entry V29F): as the sequence (P11444 whole entry A25V) above, with V25A, V29F counted along it

[12] = biological target: N197A MR; conditions: read-out: Ki (competitive inhibition constant); cited from earlier work
[13] = biological target: F52W/Y54W MR; conditions: read-out: Ki (competitive inhibition constant); cited from earlier work
[14] = biological target: F52W MR; conditions: read-out: Ki (competitive inhibition constant); cited from earlier work
[15] = biological target: E317Q MR; conditions: read-out: Ki (competitive inhibition constant); cited from earlier work
[16] = biological target: Mandelate racemase (MR, EC 5.1.2.2); conditions: cited from earlier work
[17] = biological target: V22A MR (Pseudomonas putida, UniProt P11444, V22A); experiment: CD-based competitive inhibition of MR variant V22A; format: biochemical
V22A MR, sequence (P11444 whole entry V22A): as the sequence (P11444 whole entry A25V) above, with V22A, V25A counted along it

[18] = biological target: V22I MR (Pseudomonas putida, UniProt P11444, V22I); experiment: CD-based competitive inhibition of MR variant V22I; format: biochemical
V22I MR, sequence (P11444 whole entry V22I): as the sequence (P11444 whole entry A25V) above, with V22I, V25A counted along it

[19] = biological target: Y54F MR (Pseudomonas putida, UniProt P11444, Y54F); experiment: CD-based competitive inhibition of MR variant Y54F; format: biochemical
Y54F MR, sequence (P11444 whole entry Y54F): as the sequence (P11444 whole entry A25V) above, with V25A, Y54F counted along it

[20] = reversible competitive inhibitor of MR

V29A MR, sequence (P11444 whole entry V29A): as the sequence (P11444 whole entry A25V) above, with V25A, V29A counted along it
V26F MR, sequence (P11444 whole entry V26F): as the sequence (P11444 whole entry A25V) above, with V25A, V26F counted along it

Which Ki [1] does the source give for `O=C(NO)c1ccccc1` [benzohydroxamate] here?
Its Ki is 462 ± 31.7 µM.

And the Ki [2]?
The Ki was 179 ± 23.3 µM.

What about the Ki [3] of the same compound?
Its Ki is 611 ± 12.2 µM.

And the Ki [4]?
Its Ki is 209 ± 9.9 µM.

What about the Ki [5] of the same compound?
The Ki was 229 ± 86.6 µM.

What about the Ki [6] of the same compound?
The Ki was 69.3 ± 2.2 µM.

What about the Ki [7] of the same compound?
The Ki was 25.7 ± 1.9 µM.

And the Ki [8]?
Its Ki is 2900 ± 700 µM.

What about the Ki [9] of the same compound?
Its Ki is 440 ± 26.9 µM.

And the Ki [10]?
The Ki was 79.2 ± 3.6 µM.

What about the Ki [11] of the same compound?
The Ki was 40.1 ± 0.2 µM.

And the Ki [12]?
The Ki was 216 ± 6 µM.

And the Ki [13]?
The Ki was 640 ± 190 µM.

What about the Ki [14] of the same compound?
Its Ki is 63 ± 10 µM.

What about the Ki [15] of the same compound?
Its Ki is 760 ± 31 µM.

And the Ki [16, 20]?
The Ki was 9.3 µM.

What about the Ki [17] of the same compound?
Its Ki is 1080 ± 460 µM.

And the Ki [18]?
The Ki was 29.2 ± 5.2 µM.

And the Ki [19]?
Its Ki is 13.1 ± 1.1 µM.

For `C[C@@](O)(C(=O)O)c1ccccc1` [(S)-atrolactate], which Ki ([16]; ground state analogue, MR) is on record?
The Ki was 150 µM.

Which Ki [16, 20] does the source give for `O=CN(O)c1ccccc1` [N-hydroxyformanilide] here?
The Ki was 2.8 µM.

For `O=NN(O)c1ccccc1` [cupferron], which Ki [16, 20] is on record?
Its Ki is 2.7 µM.

With `O=P(O)(O)C(O)c1ccccc1` (stereo not drawn) [α-hydroxybenzylphosphonate] as the compound, how does the Ki [16, 20] read?
The Ki was 4.7 µM.

For `CC(=O)NO` [acetohydroxamate], which Ki ([16]; MR) is on record?
Its Ki is 27000 µM.
